Series [1] in a line: Capacity of solvents to dissolve sophorolactone. To be noted: percent sophorolactone dissolved by the solvent at room temperature. Format: physicochemical.
Series [2] can be described thus: Contact angle of isoamyl lactate / partial sophorolipid hydrolysate mixtures. Format: physicochemical. To be noted: room temperature, sessile drop; FIG. 4. As for the experimental part: The contact angle of combinations of isoamyl lactate (Galactic) with partial sophorolipid hydrolysate (0.7 mol equivalent) on white PVC-strips (Leneta) was measured at room temperature with a Krüss DSA100 tensiometer using the sessile drop method. Each component of the mixtures is at maximum 1% active matter. Results are evaluated with the software Statistica.

The conditions of series [3]: OK / NOK; cited from earlier work.
The next series can be described thus: Solubility in water. Format: physicochemical.
A short description of another series: Antifogging test. Format: physicochemical. Conditions: mirror treated with 10% solution in water of 10% sophorolactone in ethanol, dried. As for the experimental part: The other half of the mirror was treated with a 10% solution of ethanol.
Series [4] is described as follows: Contact angle of deionized water on treated substrate, without or with rinses. The class given is physicochemical. Conditions: 1% active; for Contact angle Rinse 1: after rinse 1; for Contact angle Rinse 1 / Contact angle Rinse 2 / Contact angle Rinse 3 / Contact Angle: in ° (unit assumed); for Contact angle Rinse 2: after rinse 2; for Contact angle Rinse 3: after rinse 3; for Contact Angle: before rinsing, NM = not measurable due to an extremely low contact angle. The procedure: A test composition was made by dissolving 10% sophorolactone in ethanol. […] Different substrates are wetted with said 1% lactone dispersion and dried in a climate chamber at 40° C. Substrates used were glass, polyvinylchloride (PVC) and leek leaves.
(§1) Several contact angle measurements were performed on each substrate.
The results obtained were for solutions wherein lactone was replaced by sodium lauryl sulphate (SPS), APG600 (a C10-C16 alkylpolyglucoside), wild type or crude sophorolipid (as obtained after fermentation, denominated as WT in Table 2), FAEO/PO nonionic (CAS 68439-51-0, C12-14 fatty alcohol, 5 mole EO, 4 mol EO), modified FAEO/PO (C8/10 fatty alcohol+1 PO+22 EO (2-hydroxydecyl)-ether) and siloxane polyether copolymer (Silwet Hydrostable 68).
This experiment was repeated with different substrates and different 1% active surfactant solutions as elaborated in Table 2.

The subject of the next series is Propionibacterium acnes. Briefly: Effectiveness against acne bacterium. Format: cell-based.
The next series is described as follows: Film forming properties. Format: physicochemical. From the text: This experiment was repeated with pieces of leek with the same outcome. […] The latter destructive detection method necessitated several PVC strips to be used, each strip lasting an extra rinse cycle before detection.
Series [5] is described as follows: Allergic reaction to house dust mite excrements.
The nature of series [6]: Sensitivity to hard water. Format: physicochemical.
The nature of series [7]: Contact angle of deionized water on treated substrate, without or with rinses. The class given is physicochemical. To be noted: for Contact angle Rinse 1 / Contact angle Rinse 2 / Contact angle Rinse 3 / Contact angle Rinse 4 / Contact angle Rinse 5 / Contact Angle: PVC, in ° (unit assumed); for Contact angle Rinse 1: after rinse 1; for Contact angle Rinse 2: after rinse 2; for Contact angle Rinse 3: after rinse 3; for Contact angle Rinse 4: after rinse 4; for Contact angle Rinse 5: after rinse 5; for Contact Angle: before rinsing, NM = not measurable due to an extremely low contact angle. As for the experimental part:
A test composition was made by dissolving 10% sophorolactone in ethanol. […] […] Substrates used were glass, polyvinylchloride (PVC) and leek leaves.
as §1
The results obtained were for solutions wherein lactone was replaced by sodium lauryl sulphate (SPS), APG600 (a C10-C16 alkylpolyglucoside), wild type or crude sophorolipid (as obtained after fermentation, denominated as WT in Table 2), FAEO/PO nonionic (CAS 68439-51-0, C12-14 fatty alcohol, 5 mole EO, 4 mol EO), modified FAEO/PO (C8/10 fatty alcohol+1 PO+22 EO (2-hydroxydecyl)-ether) and siloxane polyether copolymer (Silwet Hydrostable 68). […]

The test system of another series is dust mite proteins. Nature of the series: Denaturation of dust mite proteins. The class given is biochemical.

These results are taken from patent publication US9795131B2, “Sophorolactone compositions and uses thereof” (ECOVER CO-ORDINATION CENTER N.V., priority 2011, dated 2017).

Values joined by “and” are separate entries in the source; they are usually repeats but may differ in a detail not shown here. Equal entries are not always repeated.

`CCO` [Ethanol]: the “% lactone dissolved” value in [1] was found to be 7.5%.
Consider `OCC(O)CO` [Glycerol], for which, in series [1], the “% lactone dissolved” value is recorded as below 1%.
For the molecule `CCCCOC(=O)C(C)O` (stereo not drawn) [Butyl lactate], the “% lactone dissolved” value in series [1] amounted to 20%.
On to `O=C1OCC(CO)O1` (stereo not drawn) [Glycerincarbonate], for which the “% lactone dissolved” value in [1] was below 1%.
In the case of `CC(C)CCOC(=O)C(C)O` (stereo not drawn) [Isoamyl lactate], the “concentration at maximal PVC wetting” value in series [2] was around 1.2%. The GRAS status entry in series [3] is listed as “NOK”. The molecule further returned a solubility in water in “Solubility in water” of at most 1%. Also, in [1], the “% lactone dissolved” value is 21.2%.
Regarding `CC(C)O` [Isopropanol], the “% lactone dissolved” value in [1] is given as 2.2%.
sophorolactone: in the series “Antifogging test”, the “condensation or fogging above boiling water” value is “not visually covered with condensation water and retained its mirror properties”. Besides, the “Contact angle Rinse 1” value in series [4] (glass) is 15.3 and 10 and 12; in series [4] (leek) it was 25 and 26 and 28; in series [7] (0.1% Lactone), 66 and 67 and 79; in series [7] (1% active in hard water (200 ppm CaCO3)), 19 and 20 and 21. The “Contact angle Rinse 2” value in series [4] (glass) was 24.4 and 30 and 25; in [7] (0.1% Lactone) it was 90 and 80; in series [7] (1% active in hard water) it was 14 and 15; in series [7] (1% active), 0; in series [7] (1% active, listed as lactone), 8.4 and 16. Further, the “Contact angle Rinse 3” value in series [4] (glass) was 23.5 and 27.8 and 25; in series [7] (1% active in hard water) it was 12 and 17 and 14. In addition, the “Contact Angle” value in series [4] (glass) is 14.2 and 14.1 and 11.3 and 10; in series [4] (leek), 28 and 27 and 25; in [7] (1% active), 7 and 10. Further, the “effectiveness against Propionibacterium acnes” value with Propionibacterium acnes is “effective”. The stability of dispersion result in the series “Film forming properties” (1% sophorolactone dispersion in water made from 10% solution in ethanol) was “remained stable overnight at room temperature without visual separation”. In addition, the “removability of dried layer by water” value in “Film forming properties” (10% sophorolactone in benzyl alcohol applied to a PVC sheet, air dried) was “virtually impossible to remove with running tap water or with repeated rinsing with water”. For the same molecule, the “repeated rinse and dry cycles withstood by layer” value in “Film forming properties” (PVC sheet, 1% sophorolactone dispersion, air dried) is “at least 5 cycles”. For the same molecule, the “allergic reaction to excrements of house dust mites” value in series [5] is “effectively reduces the allergic reaction”. For the same molecule, the phytotoxicity entry in “Phytotoxicity” is on record as “not phytotoxic”. Besides, the “sensitivity to hard water” value in [6] is listed as “insensitive to hard water”. Further, in series [7] (1% lactone dispersion made using hard water), the “contact angles and rinse resistance” value is “equally low contact angles and excellent rinse resistance”. In addition, the “Contact angle Rinse 4” value in series [7] (1% active in hard water) was 11 and 12. Also, the “Contact angle Rinse 5” value in [7] (1% active in hard water) was 12 and 11 and 10. In series [7] (hydrophobic surface such as PVC and leek), the “wetting by water after rinses” value is given as “excellent wetting by water even after 5 rinses”. The “denaturation of dust mite proteins” value with dust mite proteins is reported as “denatures dust mite proteins”.
In the case of `CCCOCC(C)O` (stereo not drawn) [PNP, 1-propoxy 2-propanol], the “% lactone dissolved” value in series [1] came to 15.57%.
For the molecule `OCc1ccccc1` [Benzylalcohol], in series [1], the “% lactone dissolved” value amounted to 67.35%.
As for `CCCCOCC(C)O` (stereo not drawn) [PNB Henkel], in [1], the “% lactone dissolved” value is recorded as 6.73%.
For `OCCc1ccccc1` [Phenetyl alcohol], the “% lactone dissolved” value in series [1] was found to be 22%.
With `CC1(C)OCC(CO)O1` (stereo not drawn) [2-3-o-isopropyliden glycerin, (2,2-dimethyl-[1,3]dioxolan-4-yl)-methanol], in series [3], the GRAS status result is reported as “NOK”.
As for `OCCCc1ccccc1` [Hydrocinnamylalcohol], the “% lactone dissolved” value in series [1] is listed as 32.5%.
Take `Cc1ccc(C(C)C)c(O)c1` [Thymol, thymol, reference compound]: the “retention of active on PVC substrate” value in the series “Film forming properties” (1% dispersion of 10% lactone, 10% thymol, 80% ethanol solution, smell and sulfuric acid colour) is “remained fixed on the PVC substrate for several rinses”.
Glycerin formal: in series [1], the “% lactone dissolved” value was 35%.
For the molecule `CCCCCCO` [Hexanol], the “% lactone dissolved” value in [1] turned out to be 2.65%.
As to `COC(C)COC(C)CO` (stereo not drawn) [DPM, dipropyleneglycol methyl ether], the GRAS status result in [3] is “NOK”. Besides, in series [1], the “% lactone dissolved” value amounted to 28.93%.
Take `CC(=O)O` [Glacial acetic]: in [1], the “% lactone dissolved” value worked out at 23.65%.
Turning to `CCOC(C)=O` [Ethylacetate], the “% lactone dissolved” value in series [1] is given as 3.96%.
Consider `CO[C@H]1CO[C@H]2[C@@H]1OC[C@H]2OC` [Dimethyl isosorbide], for which the GRAS status entry in series [3] is recorded as “NOK”. In [1], the “% lactone dissolved” value amounted to 31.89%.
`CCCCCCCCCCCCOS(=O)(=O)[O-].[Na+]` [SLS, sodium lauryl sulphate, reference compound]: in [4] (glass, sulphate), the “Contact angle Rinse 2” value was 33.2 and 64.2 and 33.8; the “Contact angle Rinse 3” value was 37.3 and 40.3 and 51.8. In addition, in [4] (glass, after rinse 4, sulphate), the “Contact angle Rinse 4” value was 50.8 and 36.2. Moreover, the “Contact angle Rinse 5” value in [4] (glass, after rinse 5, sulphate) is 34 and 38 and 30. Moreover, in series [7] (1% active, sulphate), the “Contact angle Rinse 1” value was 72 and 100 and 96; the “Contact angle Rinse 2” value is 102 and 94 and 90; the “Contact angle Rinse 3” value was 64 and 65; the “Contact angle Rinse 4” value was 75 and 84 and 102. The “Contact angle Rinse 5” value in [7] (1% active, sulphate) was 100 and 99 and 101. Besides, the “Contact Angle” value in series [7] (1% active) was found to be 1.
As for `CCCCCCC(O)CO` (stereo not drawn) [Caprylyl Glycol], in [1], the “% lactone dissolved” value is listed as 8.65%.
Turning to `CC(O)CO` (stereo not drawn) [Propylene glycol], the “% lactone dissolved” value in series [1] was 9.05%.
Consider `OCCCO` [1.3 propanediol], for which the “% lactone dissolved” value in [1] is recorded as 2.75%.
On to `C=C(C)[C@H]1CC=C(C)CC1` [D-limonene], for which, in series [1], the “% lactone dissolved” value worked out at 8.5%.
As for `OCCOc1ccccc1` [Phenoxyethanol], the GRAS status entry in series [3] is listed as “NOK”.
